Results taken from paper PMC4980028, “Discovery of a Series of Acridinones as Mechanism-Based Tubulin Assembly Inhibitors with Anticancer Activity” (PLoS ONE, 2016).
Read-outs that look alike come from different tables or passages of the source.

How the values were obtained:
MDA-MB-231 cells [1] = experiment: Wound healing assay; format: cell-based, human; settings: 10 μM, 22 h
Protocol: To qualitatively evaluate directional cell migration, MDA-MB-231 cells were seeded at a density of 1 x 10^5 cells/well in 24-well culture plates (TPP^TM) and allowed to reach a confluent monolayer. Then, the wells were scratched using a sterile 100 μL pipette tip. The medium was removed and fresh medium without FBS was added to clean the debris. Next, the cells were incubated for 22 h at 37°C with supplemented medium (10% FBS) and different concentrations of test compounds (10 μM, 1 μM and 0.250 μM). When measuring the wound closure, the wells were photographed under a 4X objective (Optiphase) at 0 and 22 h. The images were analyzed using Image J software, and two independent experiments were conducted in triplicate.

MDA-MB-231 cells [2] = experiment: Boyden chamber (transwell) migration assay; format: cell-based, human; settings: MDA-MB-231, transwell, 6 h, read-out: IC50 Cell migration
Protocol: Transwells containing 0.3 cm^2 inserts with 8.0 μm pore polyethylene terephthalate membranes (Corning Falcon^TM) were used to quantify cell migration. MDA-MB-231 cells were added at a density of 4 x 10^4 cells/insert in serum-free media (300 μL) in the upper chambers. In the lower chambers, 700 μL of medium supplemented with 10% FBS was added. […] The systems were incubated at 37°C for 6 h. Next, the cells inside the insert were removed with a cotton swab and the cells under the membrane were fixed with methanol and stained with toluidine blue for 5 min. Pictures of the stained membrane were taken under a 10X objective (Optiphase), and the cells were quantified using NIS Elements software (NIKON). Two independent experiments were conducted in duplicate.

DU-145 = experiment: Cytotoxicity assay (MTS); format: cell-based, human; settings: 72 h MTS assay
Protocol: (§1) MDA-MB-231, DU-145 and FGH cell lines were plated at a concentration of 4 x 10^3 cells/well in 96-well culture plates (TPP^TM). After 24 h, 10 concentrations (100–0.16 μM) of the test compounds were added in triplicate to the wells, and the plates were incubated for 72 h at 37°C in a 5% CO2 humidified atmosphere (if necessary). Then, 20 μL of the MTS reagent (CellTiter 96® AQueous One Solution Cell Proliferation Assay, Promega) was added to the wells, and the cells were incubated for 3 to 4 h at 37°C. Next, absorbance was measured at 490 nm using a spectrophotometer (SpectraMax Plus384, Molecular Devices). The percentage of unviable cells was determined in relation to the control wells, and at least two independent experiments were carried out for each test compound.

MDA-MB-231 = experiment: Cytotoxicity assay (MTS); format: cell-based, human; settings: for IC50: 72 h MTS assay; for dead cells in MTS studies: similar concentrations as apoptosis analyses
Protocol: as §1

FGH = experiment: Cytotoxicity assay (MTS); format: cell-based, human; settings: for IC50: 72 h MTS assay, normal fibroblasts; for cell death in FGH cells: concentrations around the IC50 values in MDA-MB-231 cells
Protocol: (§2) Then, 20 μL of the MTS reagent (CellTiter 96® AQueous One Solution Cell Proliferation Assay, Promega) was added to the wells, and the cells were incubated for 3 to 4 h at 37°C. Next, absorbance was measured at 490 nm using a spectrophotometer (SpectraMax Plus384, Molecular Devices). The percentage of unviable cells was determined in relation to the control wells, and at least two independent experiments were carried out for each test compound.

tubulin [3] = target: T1, tubulin (Sus scrofa, UniProt P02550+P02554); experiment: Fluorescence-based tubulin polymerization assay; format: biochemical; settings: read-out: IC50 Tubulin assembly
T1 sequence (P02550 whole entry): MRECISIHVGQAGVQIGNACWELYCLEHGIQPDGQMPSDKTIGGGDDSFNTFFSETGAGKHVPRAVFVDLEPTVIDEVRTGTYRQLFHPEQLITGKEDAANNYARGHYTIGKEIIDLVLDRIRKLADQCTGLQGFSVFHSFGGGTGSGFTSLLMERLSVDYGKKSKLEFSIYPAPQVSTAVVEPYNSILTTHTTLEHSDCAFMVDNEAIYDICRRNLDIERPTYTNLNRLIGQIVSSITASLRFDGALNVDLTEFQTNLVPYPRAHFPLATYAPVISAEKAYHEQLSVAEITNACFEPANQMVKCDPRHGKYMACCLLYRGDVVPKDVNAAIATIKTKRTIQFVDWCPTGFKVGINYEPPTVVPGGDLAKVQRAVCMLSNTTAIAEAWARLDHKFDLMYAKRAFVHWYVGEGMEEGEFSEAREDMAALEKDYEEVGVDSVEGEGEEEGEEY
T1 sequence (P02554 whole entry): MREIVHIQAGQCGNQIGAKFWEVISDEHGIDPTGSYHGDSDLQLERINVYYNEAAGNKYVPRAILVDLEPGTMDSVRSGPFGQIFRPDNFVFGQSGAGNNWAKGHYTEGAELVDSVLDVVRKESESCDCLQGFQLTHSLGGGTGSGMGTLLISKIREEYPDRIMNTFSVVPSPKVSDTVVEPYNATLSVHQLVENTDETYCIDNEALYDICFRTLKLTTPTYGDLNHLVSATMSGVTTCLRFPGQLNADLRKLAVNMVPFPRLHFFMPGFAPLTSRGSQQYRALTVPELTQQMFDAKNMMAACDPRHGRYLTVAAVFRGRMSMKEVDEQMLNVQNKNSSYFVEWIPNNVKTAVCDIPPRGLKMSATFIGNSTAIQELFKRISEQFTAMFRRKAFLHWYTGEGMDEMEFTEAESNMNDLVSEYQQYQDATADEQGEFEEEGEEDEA
Protocol: Tubulin polymerization assay kit B[…] (Cytoskeleton) was used according to the manufacturer's instructions. […] The curves were normalized, and the percentage of inhibition was calculated by comparing the polymerization reaction at 25 min relative to vehicle control.

MDA-MB-231 cells [4] = experiment: Cell-cycle analysis by flow cytometry; format: cell-based, human; settings: 48 h, 1 or 3 μM, synchronized culture
Protocol: MDA-MB-231 cells were added at a density of 5 x 10^5 cells in 25 cm^2 culture bottles (TPP^TM) with 5 mL of medium supplemented with 10% FBS. After 36 h, the media was removed, and 5 mL of fresh media without FBS was added. The bottles were then incubated for 48 h for cell-cycle synchronization. Then, the cells were treated with the test compounds (1 or 3 μM) for 48 h. Subsequently, the cells were harvested by trypsinization, and their chromatin was fixed and stained following the manufacturer’s instructions (cat. no. 340242, BD Biosciences^TM). Shortly thereafter, the cells were centrifuged at 300 rcf for 5 min and resuspended in 1 mL of buffer (sodium citrate, sucrose, and DMSO) three times. From this suspension, 1 x 10^6 cells were centrifuged at 400 rcf for 5 min, resuspended in 250 μL of solution A (trypsin in a spermine tetrahydrochloride detergent buffer) and incubated for 10 min at room temperature. Next, 200 μL of solution B (trypsin inhibitor and ribonuclease A in citrate-stabilizing buffer with spermine tetrahydrochloride) was added, and the suspension was incubated for 10 min at room temperature. Finally, 200 μL of solution C (propidium iodide (PI) and spermine tetrahydrochloride in citrate stabilizing buffer) was added, and the sample was incubated for 15 min in the refrigerator. The samples were then analyzed by flow cytometry using a BD Accuri C5 (BD Biosciences^TM) system (excitation at 488 nm and emission detected with a 585/40 nm filter).

MDA-MB-231 cells [5] = experiment: Apoptosis analysis (FITC-Annexin V/PI flow cytometry); format: cell-based, human; settings: for dead cells: 72 h after treatment; for apoptotic cells: after 24 h
Protocol: Apoptosis was measured by flow cytometry via double staining with FITC-Annexin V and PI (cat. no. 556570, BD Pharmigen^TM). Cells were prepared in the same way as described for the cell-cycle analysis, except that the cell-synchronization step was omitted in this case. After treatment with the test compounds for 24 or 72 h, the cells were harvested by trypsinization and centrifuged for 10 min at 150 rcf. The pellet was resuspended in annexin V binding buffer at a concentration of 10^6 cells/mL. Then, 100 μL of this suspension was collected and stained with 5 μL of PI and FITC-Annexin V for 15 min at room temperature in the dark. After this, 400 μL of annexin V binding buffer was added, and the samples were analyzed using a BD Accuri C5 cytometer with excitation at 488 nm and emission detected with 533/30 nm (FITC) and 670 LP nm (PI) filters.

Cytotoxicity assay (MTS) = format: cell-based, human; settings: human, FGH cells (normal fibroblasts); 72 h MTS assay, normal fibroblasts
Protocol: as §2

tubulin [6] = target: T1, tubulin; experiment: Light-scattering-based tubulin polymerization assay; format: biochemical; settings: read-out: IC50 Tubulin assembly
Protocol: To independently confirm the ability of the compounds to inhibit tubulin assembly, a second tubulin polymerization assay was carried out. We added 20 μL aliquots of the test compounds solubilized in 10% DMSO (in triplicate) to the wells of a 96-well culture plate (TPP^TM). Then, 180 μL of 3 mg/mL tubulin (>97% pure, HTS03, Cytoskeleton) in G-PEM buffer (80 mM PIPES, 1 mM EGTA, 2 mM GTP, 1 mM MgCl2 and glycerol 5%, pH 7,0) was added to the wells, and the absorbance at 340 nm was measured every 40 s for 1 h using a SpectraMax Plus384.

Row | IC50 (MDA-MB-231 cells [2]; Homo sapiens) [nM] | Structure (SMILES) | inhibition of wound closure (cell migration) (MDA-MB-231 cells [1]) | IC50 (MDA-MB-231 cells [2]) [nM] | IC50 (DU-145) [nM] | IC50 (MDA-MB-231) [nM] | dead cells in MTS studies (MDA-MB-231) [%] | IC50 (FGH) [nM] | cell death in FGH cells (FGH) [%] | IC50 (tubulin [3]) [nM] | cells arrested in G2 (MDA-MB-231 cells [4]) [%] | dead cells (MDA-MB-231 cells [5]) [%] | apoptotic cells (MDA-MB-231 cells [5]) [%] | IC50 at 72 h (Cytotoxicity assay (MTS)) [nM] | IC50 (tubulin [6]) [nM] | IC50 (DU-145; Homo sapiens, DU-145) [nM] | IC50 (MDA-MB-231; Homo sapiens, MDA-MB-231) [nM] | SI (selectivity index) (FGH)
1 | – | O=C1CCCC2=C1C(c1ccc3c(c1)OCO3)c1ccc3ccccc3c1N2 (stereo not drawn) [Compound 6] | inhibit cell migration | 1700 ± 700 | 3200 ± 700 | 3000 ± 1000 | 51 | > 100000 | 3 | 13000 ± 2000 | 53.6 | 55 | 69.4 | – | – | – | – | –
2 | – | COc1cc2c(c(OC)c1OC)-c1ccc(OC)c(=O)cc1[C@@H](NC(C)=O)CC2 [Colchicine, colchicine, reference compound] | – | – | 25 ± 3 | 20 ± 10 | – | – | – | – | 42.9 | 72 | 65 | < 20 | – | – | – | –
3 | – | O=C1CCCC2=C1C(c1cccs1)c1ccc3ccccc3c1N2 (racemic) [Compound 9] | inhibit cell migration | 1345 ± 7 | 1000 ± 300 | 1100 ± 200 | 71 | > 100000 | 13 | – | 53.6 | 75 | 54.6 | – | 5000 ± 2000 | – | – | –
4 | 294 ± 5 | O=C1CCCC2=C1[C@@H](c1cccc([N+](=O)[O-])c1)c1ccc3ccccc3c1N2 [Compound 7] | inhibit cell migration | – | – | – | 69 | – | 20 | – | 49.1 | 67 | 54.2 | > 100000 | – | 308 ± 50 | 190 ± 7 | > 100
